Source: patent US20080051449A1, “PREPARATION OF ATORVASTATIN CALCIUM FORM VI AND COMPOSITIONS THEREOF” (priority 2006, published 2008)

Columns and labels:
Format in all cases: physicochemical
[1] = Stability study under various stress conditions in an open container
Text: Stability Study of Atorvastatin Calcium Crystalline Form VI (Example 3) Subject to Various Stress Conditions in an Open Container

[2] = Stability study during storage at 25° C. and 60% relative humidity; details: 25° C./60% RH
Description: Stability Study of Atorvastatin Calcium Crystalline Form VI (Example 3) During Storage at 25° C. and 60% Relative Humidity.
Stability packaging: same as Example 5.

[3] = Stability study at 40° C. and 75% relative humidity; details: 40° C./75% RH
Text: Stability packaging: The sample was packed in a clear polyethylene bag and flushed with nitrogen, then tied and placed in a black polyethylene bag along with silica gel and tied. Finally the black bag was placed in a triple laminated bag and sealed with a liner sealer.

[4] = Particle size distribution by Malvern particle size analyzer; details: dispersant 0.7% dioctyl sodium sulfosuccinate in n-hexane
Text: A particle size distribution of D50 as used herein is defined as the distribution where 50 volume percent of the particles are smaller than that size given. A particle size distribution of D10 as used herein is defined as the distribution where 10 volume percent of the particles are smaller than that size given. A particle size distribution of D90 as used herein is defined as the distribution where 90 volume percent of the particles are smaller than that size given. The D50 value is considered to be a “mean particle size.” Particle size can be determined using commercially available instrumentation, such as that sold by Malvern Instruments Ltd. of Malvern, Worcestershire, United Kingdom and using a laser diffraction principle.
The particle size distribution of atorvastatin calcium Form VI was determined using a Malvern® particle size analyzer, and 0.7% of dioctyl sodium sulfosuccinate in n-hexane was used as the dispersant.

[5] = Accelerated Stability (40° C. and 75% relative humidity) 24 hours
[6] = Compression (2000 kg/cm^2) for 1 hour
[7] = UV Photostability λ = 254 nm, 24 hours

Substance: [R—(R*,R*)]-2-(4-fluorophenyl)-β,δ-dihydroxy-5-(1-methylethyl)-3-phenyl-4[(phenyl amino) carbonyl]-IH-pyrrole-1-heptanoic acid, calcium salt (2:1) trihydrate [Atorvastatin calcium Form VI (Example 3)]
- Total Impurities [1, 5]: 0.29 % w/w
- Water by KF [1, 5]: 1.85 % w/w
- Total Impurities [1, 6]: 0.32 % w/w
- Water by KF [1, 6]: 1.68 % w/w
- Total Impurities ([1]; Initial analysis): 0.26 % w/w
- Water by KF ([1]; Initial analysis): 1.60 % w/w
- Total Impurities ([1]; Thermal (90° C.) 24 hours): 0.7 % w/w
- Water by KF ([1]; Thermal (90° C.) 24 hours): 1.04 % w/w
- Total Impurities [1, 7]: 0.27 % w/w
- Water by KF [1, 7]: 1.54 % w/w
- Assay by HPLC ([2]; 1 month): 99.1 % w/w
- Moisture Content ([2]; 1 month): 1.5 % w/w
- Total Impurities by HPLC ([2]; 1 month): 0.16 % w/w
- Assay by HPLC ([2]; 3 months): 99.1 % w/w
- Moisture Content ([2]; 3 months): 1.7 % w/w
- Total Impurities by HPLC ([2]; 3 months): 0.14 % w/w
- Assay by HPLC ([2]; 6 months): 99.3 % w/w
- Moisture Content ([2]; 6 months): 1.5 % w/w
- Total Impurities by HPLC ([2]; 6 months): 0.23 % w/w
- Assay by HPLC ([2]; Initial): 99.1 % w/w
- Moisture Content ([2]; Initial): 1.4 % w/w
- Total Impurities by HPLC ([2]; Initial): 0.18 % w/w
- Assay by HPLC ([3]; 1 month): 99.2 % w/w
- Moisture Content ([3]; 1 month): 1.4 % w/w
- Total Impurities by HPLC ([3]; 1 month): 0.14 % w/w
- Assay by HPLC ([3]; 3 months): 99.2 % w/w
- Moisture Content ([3]; 3 months): 1.6 % w/w
- Total Impurities by HPLC ([3]; 3 months): 0.15 % w/w
- Assay by HPLC ([3]; 6 months): 99.2 % w/w
- Moisture Content ([3]; 6 months): 1.6 % w/w
- Total Impurities by HPLC ([3]; 6 months): 0.24 % w/w
- Assay by HPLC ([3]; Initial): 99.1 % w/w
- Moisture Content ([3]; Initial): 1.4 % w/w
- Total Impurities by HPLC ([3]; Initial): 0.18 % w/w
- Particle Size D10 [4]: 1.32 μm
- Particle Size D50 [4]: 5.22 μm
- Particle Size D90 [4]: 24.54 μm
